Experimental data: paper PMC12282105 (RSC Advances, 2025)

Target: SARS-CoV-2 main protease (M^pro or 3CL^pro) (Severe acute respiratory syndrome coronavirus 2, UniProt P0DTD1)
Test: Fluorogenic substrate assay of SARS-CoV-2 main protease
Format: biochemical
Conditions: compound 9 relative to compound 8

Compound: O=c1cc(-c2ccc(O)cc2)oc2cc(O[C@@H]3O[C@H](CO)[C@@H](O)[C@H](O)[C@H]3O)cc(O)c12 [Compound 9, apigenin-7-O-β-D-glucopyranoside]
- improvement in protease inhibitory activity: 15 fold
